Reference: PMC10099813, “Stafiba: A STAT5‐Selective Small‐Molecule Inhibitor” (Chembiochem, 2022)

Columns and labels:
[1] = target: T1, STAT1 (Homo sapiens, UniProt P42224); assay: Competitive fluorescence polarization (FP) binding assay, STAT1; settings: for IC50: 2 % DMSO for 5, 10 % DMSO for 10; for Ki: Ki calculated from IC50, 2 % DMSO for 5, 10 % DMSO for 10
T1 sequence (P42224 1-750): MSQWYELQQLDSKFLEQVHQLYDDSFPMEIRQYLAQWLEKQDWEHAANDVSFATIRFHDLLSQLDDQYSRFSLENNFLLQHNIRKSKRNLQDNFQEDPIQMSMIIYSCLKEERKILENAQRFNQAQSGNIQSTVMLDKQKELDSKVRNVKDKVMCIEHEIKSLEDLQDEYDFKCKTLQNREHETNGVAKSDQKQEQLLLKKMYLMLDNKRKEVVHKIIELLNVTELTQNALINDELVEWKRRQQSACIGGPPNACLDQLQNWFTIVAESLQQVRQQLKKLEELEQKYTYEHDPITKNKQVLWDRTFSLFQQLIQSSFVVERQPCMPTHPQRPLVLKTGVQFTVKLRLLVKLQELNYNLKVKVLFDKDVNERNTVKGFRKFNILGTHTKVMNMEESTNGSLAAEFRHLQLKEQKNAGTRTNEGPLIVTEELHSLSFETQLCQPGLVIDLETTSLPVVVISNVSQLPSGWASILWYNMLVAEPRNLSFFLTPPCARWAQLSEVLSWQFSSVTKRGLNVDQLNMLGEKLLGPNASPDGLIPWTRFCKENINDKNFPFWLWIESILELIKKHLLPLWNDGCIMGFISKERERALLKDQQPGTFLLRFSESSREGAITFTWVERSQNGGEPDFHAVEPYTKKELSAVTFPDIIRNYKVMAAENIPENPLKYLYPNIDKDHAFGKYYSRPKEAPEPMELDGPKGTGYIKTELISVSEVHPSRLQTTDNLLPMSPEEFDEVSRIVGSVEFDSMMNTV
Procedure: (§1) Fluorescence polarization assays: Competitive binding assays based on fluorescence polarization were carried out essentially as previously described.[[4a]] Unless stated otherwise, final concentrations of the buffer components were: 10 mM Tris (pH 8.0), 50 mM NaCl, 1 mM EDTA, 1 mM DTT, 0.1 % (v/v) Nonidet P‐40 substitute, and 2 % DMSO. Proteins were used at concentrations which reflect the Kd values of the interactions between the fluoropeptide and the protein preparations. Protein concentrations used for activity analysis of compound 5 were 91 nM for STAT1, 107 nM for STAT3, 28 nM for STAT4, 122 nM for STAT5a, 56 nM for STAT5b and 101 nM for STAT6. Protein concentrations used for activity analysis of AC‐4‐130 were 103 nM for STAT5a and 62 nM for STAT5b. […] Final concentration of all fluorescent‐labelled peptides was 10 nM. The following peptides were used in assays: 5‐carboxyfluorescein‐GpYDKPHVL for STAT1; 5‐carboxyfluorescein‐GpYLPQTV‐NH2 for STAT3; 5‐carboxyfluorescein‐GpYLPQNID for STAT4; 5‐carboxyfluorescein‐GpYLVLDKW for STAT5a/5b, and 5‐carboxyfluorescein‐GpYVPWQDLI for STAT6. Protein and test compounds were incubated for 1 h prior to addition of the fluorescein‐labeled peptide. Fluorescence polarization was measured after another 60 min using an Infinite F500 plate reader (Tecan). IC50 values were converted to Ki‐values using the published equation.[13]

[2] = target: STAT3 (Homo sapiens, UniProt P40763); assay: Competitive fluorescence polarization (FP) binding assay, STAT3; settings: 2 % DMSO for 5, 10 % DMSO for 10
Sequence of STAT3 (P40763 whole entry, species assumed): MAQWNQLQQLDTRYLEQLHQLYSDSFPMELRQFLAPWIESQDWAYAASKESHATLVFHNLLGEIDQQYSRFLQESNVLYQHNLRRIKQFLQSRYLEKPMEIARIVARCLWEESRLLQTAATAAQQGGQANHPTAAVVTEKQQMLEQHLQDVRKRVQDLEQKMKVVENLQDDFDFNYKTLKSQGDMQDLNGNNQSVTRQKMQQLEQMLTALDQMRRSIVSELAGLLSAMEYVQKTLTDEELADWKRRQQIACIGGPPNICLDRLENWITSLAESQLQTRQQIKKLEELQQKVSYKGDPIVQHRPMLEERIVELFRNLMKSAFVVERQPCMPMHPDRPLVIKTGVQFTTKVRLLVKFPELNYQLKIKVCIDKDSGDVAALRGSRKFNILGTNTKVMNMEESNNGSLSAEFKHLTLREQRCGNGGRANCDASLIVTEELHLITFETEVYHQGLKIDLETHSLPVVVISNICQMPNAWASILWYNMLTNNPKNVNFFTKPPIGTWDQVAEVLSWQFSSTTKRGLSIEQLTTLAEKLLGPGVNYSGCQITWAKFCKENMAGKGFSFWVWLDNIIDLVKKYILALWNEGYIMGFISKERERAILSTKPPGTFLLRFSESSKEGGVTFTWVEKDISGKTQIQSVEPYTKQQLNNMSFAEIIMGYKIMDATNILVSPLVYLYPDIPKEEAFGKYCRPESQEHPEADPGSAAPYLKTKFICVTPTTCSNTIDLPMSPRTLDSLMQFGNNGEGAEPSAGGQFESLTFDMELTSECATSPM
Procedure: as §1

[3] = target: T2, STAT4 (Homo sapiens, UniProt Q14765); assay: Competitive fluorescence polarization (FP) binding assay, STAT4; settings: for IC50: 2 % DMSO for 5, 10 % DMSO for 10; for Ki: Ki calculated from IC50, 2 % DMSO for 5, 10 % DMSO for 10
T2 sequence (Q14765 1-748): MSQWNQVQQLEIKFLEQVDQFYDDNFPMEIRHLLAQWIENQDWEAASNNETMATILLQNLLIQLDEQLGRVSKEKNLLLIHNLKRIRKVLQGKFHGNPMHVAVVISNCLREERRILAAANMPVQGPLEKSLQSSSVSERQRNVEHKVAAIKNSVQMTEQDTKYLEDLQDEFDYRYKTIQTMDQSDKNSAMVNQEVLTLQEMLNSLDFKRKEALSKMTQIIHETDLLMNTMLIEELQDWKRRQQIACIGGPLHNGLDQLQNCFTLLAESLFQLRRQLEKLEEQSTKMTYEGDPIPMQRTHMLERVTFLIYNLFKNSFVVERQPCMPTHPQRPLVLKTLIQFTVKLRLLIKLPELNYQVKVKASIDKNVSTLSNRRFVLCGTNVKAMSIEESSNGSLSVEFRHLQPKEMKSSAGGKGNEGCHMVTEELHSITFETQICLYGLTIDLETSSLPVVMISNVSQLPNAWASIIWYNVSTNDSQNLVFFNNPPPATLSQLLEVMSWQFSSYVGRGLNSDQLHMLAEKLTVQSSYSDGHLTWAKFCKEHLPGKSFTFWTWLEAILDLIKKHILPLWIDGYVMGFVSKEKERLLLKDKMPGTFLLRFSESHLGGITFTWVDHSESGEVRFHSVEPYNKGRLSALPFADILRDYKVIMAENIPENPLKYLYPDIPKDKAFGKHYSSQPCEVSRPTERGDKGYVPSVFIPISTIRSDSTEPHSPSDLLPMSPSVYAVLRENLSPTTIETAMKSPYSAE
Procedure: as §1

Row | Structure (SMILES) | IC50 [1] [µM] | Ki [1] [µM] | inhibition at 100 µM [2] [%] | IC50 [3] [µM] | Ki [3] [µM]
1 | O=C(CNc1ccc(C(=O)Nc2ccc(Oc3ccccc3)cc2)cc1)NCc1cc(OP(=O)(O)O)cc(OP(=O)(O)O)c1 [compound 5] | 70.4 ± 3.1 | 34.6 ± 1.5 | 33 ± 11 | 11.3 ± 2.7 | 5.3 ± 1.3
2 | O=C(CNc1ccc(C(=O)Nc2ccc(Oc3ccccc3)cc2)cc1)NCc1cc(C(F)(F)P(=O)(O)O)c(F)c(C(F)(F)P(=O)(O)O)c1 [compound 10] | 53.8 ± 1.6 | 26 ± 0.8 | 49 ± 3 | 11.2 ± 1.2 | 5.3 ± 0.6
